Measurements taken from patent US20250230193A1, “CYCLIC COMPOUND HAVING SELECTIVE KRAS INHIBITORY EFFECT ON HRAS AND NRAS” (CHUGAI SEIYAKU KABUSHIKI KAISHA, priority 2022, published 2025).
*1 amine or outer side, *2 acyl side, *3 side chain or, on linkers, in order; H or OH if unused. Where a SMILES comes first, the peptide text is derived from it. Bridges are numbered along the chain shown (N, C = ends). [ ]: non-standard residue; d: D form. The star is where a group is joined. hPhe(3-Cl-4-CF3) = N[C@@H](CCc1ccc(C(F)(F)F)c(Cl)c1)C(=O)O; NPrPhe(4-CF3) = CCCN[C@@H](Cc1ccc(C(F)(F)F)cc1)C(=O)O; NEtPhe(4-Me) = CCN[C@@H](Cc1ccc(C)cc1)C(=O)O; NMeGly(cPent) = CN[C@H](C(=O)O)C1CCCC1; Hyp = O=C(O)[C@@H]1C[C@@H](O)CN1; X15 = O=C(CN(CC(F)F)[*:1])[*:2]; NMeD = CN[C@@H](CC(=O)O)C(=O)O; NMeL = CN[C@@H](CC(C)C)C(=O)O; Morpholide = C1CN(*)CCO1; Ac5c = NC1(C(=O)O)CCCC1; Ac4c = NC1(C(=O)O)CCC1; Sar = CNCC(=O)O

What was measured:
[1] = target: GDP-bound NRAS wild-type protein (Homo sapiens, UniProt P01111); assay: Binding to NRAS by surface plasmon resonance (SPR), Single Cycle Kinetics; details: SPR
[2] = target: GDP-bound HRAS wild-type protein (Homo sapiens, UniProt P01112); assay: Binding to HRAS by surface plasmon resonance (SPR), Single Cycle Kinetics; details: SPR
[3] = KD ratio, GDP-bound NRAS wild-type vs GDP-bound KRAS wild-type
[4] = KD ratio, GDP-bound HRAS wild-type vs GDP-bound KRAS wild-type

Chain of GDP-bound HRAS wild-type protein (P01112 whole entry): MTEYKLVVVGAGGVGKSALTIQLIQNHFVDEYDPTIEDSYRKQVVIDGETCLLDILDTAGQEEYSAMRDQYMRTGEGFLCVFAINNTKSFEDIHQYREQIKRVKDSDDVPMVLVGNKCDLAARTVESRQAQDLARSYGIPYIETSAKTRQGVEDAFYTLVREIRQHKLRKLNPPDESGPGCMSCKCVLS
Chain of GDP-bound NRAS wild-type protein (P01111 whole entry): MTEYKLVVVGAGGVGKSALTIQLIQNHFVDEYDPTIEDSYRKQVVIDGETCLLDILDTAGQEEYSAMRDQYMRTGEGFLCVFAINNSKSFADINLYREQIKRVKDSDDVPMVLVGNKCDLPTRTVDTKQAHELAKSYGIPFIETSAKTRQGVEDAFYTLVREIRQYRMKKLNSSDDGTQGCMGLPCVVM

With `CCCN1C(=O)CN(C)C(=O)CN(CC(F)F)C(=O)[C@H]([C@@H](C)CC)NC(=O)[C@H](CC(C)C)N(C)C(=O)C[C@@H](C(=O)N2CCOCC2)N(C)C(=O)[C@H](C2CCCC2)N(C)C(=O)C2(CCCC2)NC(=O)[C@@H]2CCCN2C(=O)[C@H](CCc2ccc(C(F)(F)F)c(Cl)c2)NC(=O)CN(C)C(=O)[C@@H]1Cc1ccc(C(F)(F)F)cc1` [PP0752] ([NMeL]I[X15][Sar][NPrPhe(4-CF3)][Sar][hPhe(3-Cl-4-CF3)]P[Ac5c][NMeGly(cPent)][NMeD]-Morpholide; lactam N-11) the “NRAS/KRAS (ratio of KD value with respect to GDP-bound NRAS wild-type protein to KD value with respect to KRAS)” value [1] was “B (a compound having 3 or more and less than 10 is denoted as B)” and the “HRAS/KRAS (ratio of KD value with respect to GDP-bound HRAS wild-type protein to KD value with respect to KRAS)” value [2] was “B (a compound having 3 or more and less than 10 is denoted as B)”.

`CC[C@H](C)[C@@H]1NC(=O)[C@H](CC(C)C)N(C)C(=O)C[C@@H](C(=O)N2CCOCC2)N(C)C(=O)[C@H](C2CCCC2)N(C)C(=O)C2(CCCC2)NC(=O)[C@H](C)N(CC)C(=O)[C@H](CCc2cc(F)c(C(F)(F)F)c(F)c2)NC(=O)CN(C)C(=O)[C@H](Cc2ccc(C(F)(F)F)cc2)N2CCCCC[C@@H](C2=O)N(C)C(=O)CN(C)C1=O` [PP0515] was tested, and the “NRAS/KRAS (ratio of KD value with respect to GDP-bound NRAS wild-type protein to KD value with respect to KRAS)” value [1] was “B (a compound having 3 or more and less than 10 is denoted as B)” and the “HRAS/KRAS (ratio of KD value with respect to GDP-bound HRAS wild-type protein to KD value with respect to KRAS)” value [2] was “B (a compound having 3 or more and less than 10 is denoted as B)”.

`CC[C@H](C)[C@@H]1NC(=O)[C@H](CC(C)C)N(C)C(=O)C[C@@H](C(=O)N2CCOCC2)N(C)C(=O)[C@H](C2CCCC2)N(C)C(=O)C2(CCCC2)NC(=O)[C@@H]2CCCN2C(=O)[C@H](CCc2ccc(C(F)(F)F)c(Cl)c2)NC(=O)CN(C)C(=O)[C@H](Cc2ccc(C)cc2)N(CC)C(=O)CN(C)C(=O)CN(C)C1=O` [PP0022] ([NMeL]I[Sar][Sar][NEtPhe(4-Me)][Sar][hPhe(3-Cl-4-CF3)]P[Ac5c][NMeGly(cPent)][NMeD]-Morpholide; lactam N-11) was tested, and the “NRAS/KRAS (ratio of KD for GDP-bound NRAS wild-type to KD for KRAS)” value [1] was “B (a compound having 3 or more and less than 10 is denoted as B)” and the “HRAS/KRAS (ratio of KD for GDP-bound HRAS wild-type to KD for KRAS)” value [2] was “C (A compound having a KD ratio of 0.1 or more and less than 3 is denoted as C)”.

In the case of `CCOC[C@H]1C(=O)N[C@@H]([C@@H](C)CC)C(=O)N(C)CC(=O)N(C)[C@H]2C/C=C\CCN(C2=O)[C@@H](Cc2ccc(C)cc2)C(=O)N(C)CC(=O)N[C@@H](CCc2ccc(C(F)(F)F)c(Cl)c2)C(=O)N2C[C@@H](C)C[C@H]2C(=O)NC2(CC(C)(C)C2)C(=O)N(C)[C@@H](C2CCCC2)C(=O)N(C)[C@H](C(=O)N(C)C)CC(=O)N1C` [PP2394], the “NRAS/KRAS (ratio of KD value with respect to NRAS to KD value with respect to KRAS)” value ([1]; GDP-bound NRAS wild-type vs GDP-bound KRAS wild-type) is reported as “A (a compound having 10 or more and less than 20 is denoted as A)” and the “HRAS/KRAS (ratio of KD value with respect to HRAS to KD value with respect to KRAS)” value ([2]; GDP-bound HRAS wild-type vs GDP-bound KRAS wild-type) is reported as “B (a compound having 3 or more and less than 10 is denoted as B)”.

For `CCCN1C(=O)CN(C)C(=O)CNC(=O)[C@H]([C@@H](C)CC)NC(=O)[C@H](CC(C)C)N(C)C(=O)C[C@@H](C(=O)N2CCOCC2)NC(=O)[C@H](C2CCCC2)N(C)C(=O)C2(CCC2)NC(=O)[C@@H]2C[C@@H](OCC)CN2C(=O)[C@H](CCc2ccc(C(F)(F)F)c(Cl)c2)NC(=O)CN(C)C(=O)[C@@H]1Cc1ccc(C(F)(F)F)cc1` [PP0330] ([NMeL]IG[Sar][NPrPhe(4-CF3)][Sar][hPhe(3-Cl-4-CF3)][Hyp](Et)[Ac4c][NMeGly(cPent)]D-Morpholide; lactam N-11), the “NRAS/KRAS (ratio of KD for GDP-bound NRAS wild-type to KD for KRAS)” value [1] was “B (a compound having 3 or more and less than 10 is denoted as B)” and the “HRAS/KRAS (ratio of KD for GDP-bound HRAS wild-type to KD for KRAS)” value [2] was “C (A compound having a KD ratio of 0.1 or more and less than 3 is denoted as C)”.

`CCOC[C@H]1C(=O)N[C@@H]([C@@H](C)CC)C(=O)N(C)CC(=O)N(C)[C@H]2CCCCCN(C2=O)[C@@H](Cc2ccc(C(F)(F)F)cc2)C(=O)N(C)CC(=O)N[C@@H](CCc2cc(F)c(C(F)(F)F)c(F)c2)C(=O)N2C[C@H](OCC)C[C@H]2C(=O)NC2(CCC2)C(=O)N(C)[C@@H](C2CCCC2)C(=O)N(C)[C@H](C(=O)N2CCOCC2)CC(=O)N1C` [PP0851] was tested, and the “NRAS/KRAS (ratio of KD value with respect to NRAS to KD value with respect to KRAS)” value [1, 3] was “B (a compound having 3 or more and less than 10 is denoted as B)” and the “HRAS/KRAS (ratio of KD value with respect to HRAS to KD value with respect to KRAS)” value [2, 4] was “B (a compound having 3 or more and less than 10 is denoted as B)”.

For `CCO[C@@H]1C[C@H]2C(=O)NC3(CC(C)(C)C3)C(=O)N(C)[C@@H](C3CCCC3)C(=O)N(C)[C@H](C(=O)N(C)CC)CC(=O)N(C)[C@@H](C(C)C)C(=O)N[C@@H]([C@@H](C)CC)C(=O)N(C)CC(=O)N(C)[C@H]3C/C=C\CCN(C3=O)[C@@H](Cc3ccc(C(F)(F)F)cc3)C(=O)N(C)CC(=O)N[C@@H](CCc3ccc(C(F)(F)F)c(OC)c3)C(=O)N2C1` [PP1977], the “NRAS/KRAS (ratio of KD value for NRAS to KD value for KRAS)” value [1, 3] was “AA (a compound having 20 or more is denoted as AA)” and the “HRAS/KRAS (ratio of KD value for HRAS to KD value for KRAS)” value [2, 4] was “A (a compound having 10 or more and less than 20 is denoted as A)”.
